In this assay the target is T1, rat mGlu2 (Rattus norvegicus, UniProt P31421).
T1 construct: expressed in transfected cells; host or cells: HEK-293
As to the kind of experiment: mGlu GIRK cell-based thallium flux assay, rat mGlu2. Conditions: rat mGlu2 GIRK IC50 (nM), HEK-293 cells co-expressing rat mGlu2 and GIRK; EC80 glutamate; Tl flux. Here is the method:
The day before the assay, GIRK cells co-expressing human mGlu3, human or rat mGlu2, as described above, were plated in black-walled, clear-bottomed, amine-coated 384-well plates at a density of 15,000 cells/20 μL/well in the assay medium (glutamine-depleted basal DMEM supplemented with 10% dialyzed FBS, 20 mM HEPES, 1 mM sodium pyruvate). Cells were incubated at 37° C. in the presence of 5% CO2. […] Cells were washed with assay buffer using a microplate washer to remove the medium, resulting in 20 μL of buffer remaining in each well. Immediately, 20 μL of 2× Thallos dye solution was added to cells, and incubated for one hour at 25° C. During the cell dye loading incubation period, a 10-point concentration serial dilution of compound was created from a 10 mM DMSO compound stock by performing a 1:3 serial dilution in DMSO using the Bravo liquid handler. The 2× compound plate was generated by transferring 0.24 μL of the diluted compound in each well to a daughter plate using an Echo acoustic liquid handler.
After dye-loading, cell plates were washed with assay buffer to remove excess extracellular dye using a microplate washer, resulting in 20 μL of buffer remaining in each well. After a ten-minute equilibration period, cell, compound and agonist plates were loaded into a Hamamatsu μCell kinetic imaging plate reader equipped with liquid handler to monitor fluorescence changes at 480 nm excitation and 540 nm emission settings. Briefly, after collection of baseline fluorescence, 20 μL of compound was added and incubated for two minutes and twenty seconds. This is immediately followed by adding 10 μL of glutamate-thallium buffer to the wells containing compound. The fluorescent signal was monitored an additional 2.5 minutes after the glutamate addition. Multiple reference wells containing no compound received either no glutamate (for a baseline reference), […] glutamate, or ECmax glutamate (for normalization to maximum response). Fluorescence was measured throughout the experiment at a frequency of 1 measurement per every 2 seconds before the glutamate addition and a frequency of 1 measurement per every 1 second after the glutamate addition. Each compound concentration series occurred one time in each plate, and replicates from two or three plates were used in each experimental run. Thallium solutions were handled and disposed of according to guidelines from the Vanderbilt University Chemical Safety department.
Data were normalized using a static ratio function (F/F0) by dividing every fluorescent measurement by the initial fluorescent value for the corresponding well. The increase in signal resulting from the glutamate/thallium addition of the second add was measured by determining the slope from 3 seconds to 13 seconds after the addition. The average of all baseline slopes (no compound, no glutamate) was determined and this value was subtracted from all other slope values. The average of all ECmax slopes was determined and this value was used to normalize the baseline-corrected slopes to a percent max value (% Emax). The % Emax values for each compound series were plotted versus the log of the concentration and fit to a 4-parameter logistical equation with no fixed parameters.
Potency is reported as the IC50 resulting from the curve fit.

This passage reports IC50 results from patent US20240199640A1, “NEGATIVE ALLOSTERIC MODULATORS OF METABOTROPIC GLUTAMATE RECEPTOR 2” (priority 2021, published 2024).

Values joined by “and” are separate entries in the source; they are usually repeats but may differ in a detail not shown here. Equal entries are not always repeated.

T1 sequence (P31421 19-872): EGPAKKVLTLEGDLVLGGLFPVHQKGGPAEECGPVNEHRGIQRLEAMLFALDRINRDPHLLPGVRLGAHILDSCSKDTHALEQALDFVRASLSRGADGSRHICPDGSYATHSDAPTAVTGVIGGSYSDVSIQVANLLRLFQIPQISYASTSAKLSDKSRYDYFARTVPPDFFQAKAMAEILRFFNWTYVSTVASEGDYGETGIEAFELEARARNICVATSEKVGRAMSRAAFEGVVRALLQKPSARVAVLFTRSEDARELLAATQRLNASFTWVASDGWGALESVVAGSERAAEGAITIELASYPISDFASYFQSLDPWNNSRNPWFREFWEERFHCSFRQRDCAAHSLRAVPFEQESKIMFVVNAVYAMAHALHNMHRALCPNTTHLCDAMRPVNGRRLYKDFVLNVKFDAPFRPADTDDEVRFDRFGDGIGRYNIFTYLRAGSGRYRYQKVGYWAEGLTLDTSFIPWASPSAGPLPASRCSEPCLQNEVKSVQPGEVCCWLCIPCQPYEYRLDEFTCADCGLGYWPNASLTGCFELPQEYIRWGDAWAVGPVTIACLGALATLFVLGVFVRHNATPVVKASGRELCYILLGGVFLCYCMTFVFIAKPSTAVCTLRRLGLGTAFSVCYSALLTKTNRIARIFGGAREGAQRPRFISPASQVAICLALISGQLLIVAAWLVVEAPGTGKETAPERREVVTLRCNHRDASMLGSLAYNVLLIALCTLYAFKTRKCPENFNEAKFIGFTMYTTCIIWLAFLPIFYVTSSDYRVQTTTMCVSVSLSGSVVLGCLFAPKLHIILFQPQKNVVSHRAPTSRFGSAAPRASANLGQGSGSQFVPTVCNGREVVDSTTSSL

Broadly, the IC50 is the midpoint of a concentration-inhibition curve. The low end stands for inhibition by little substance, the high end for a need for much substance. In the case of `Cc1ncc(COc2cc3c(cc2-c2ccc(F)cc2)C(=O)NC3)s1` [Compound 26, 6-(4-fluorophenyl)-5-((2-methylthiazol-5-yl)methoxy)isoindolin-1-one], the concentration for half-maximal inhibition (IC50) was 92 nM.

Turning to `CC(Oc1cc2c(cc1-c1ccc(F)cc1)C(=O)NC2)c1ccncc1` (stereo not drawn) [Compound 27, 6-(4-fluorophenyl)-5-(1-(pyridin-4-yl)ethoxy)isoindolin-1-one], the IC50 is 321 nM.

The molecule `CC(Oc1cc2c(cc1-c1ccc(F)cc1F)C(=O)NC2)c1ccncc1` (stereo not drawn) [Compound 28, 6-(2,4-difluorophenyl)-5-(1-(pyridin-4-yl)ethoxy)isoindolin-1-one] registered an IC50 of 305 nM.

`Cc1csc(C(C)Oc2cc3c(cc2-c2ccc(F)cc2)C(=O)NC3)n1` (stereo not drawn) [Compound 29, 6-(4-fluorophenyl)-5-(1-(4-methylthiazol-2-yl)ethoxy)isoindolin-1-one] returned an IC50 of 1690 nM.

The molecule `[2H]C([2H])(Oc1cc2c(cc1-c1ccc(F)cc1)C(=O)NC2)c1cnn(C)c1` [Compound 30, 6-(4-fluorophenyl)-5-((1-methyl-1H-pyrazol-4-yl)methoxy-d2)isoindolin-1-one] registered an IC50 of 418 nM.

In turn, `O=C1NCc2cc(Oc3ccncc3)c(-c3ccc(F)cc3)cc21` [Compound 31, 6-(4-fluorophenyl)-5-(pyridin-4-yloxy)isoindolin-1-one] displayed an IC50 of 1160 nM.

`O=C1NCc2cc(Oc3ccncc3)c(-c3ccc(F)cc3F)cc21` [Compound 32, 6-(2,4-difluorophenyl)-5-(pyridin-4-yloxy)isoindolin-1-one] gave an IC50 of 151 nM.

As for `O=C1NCc2cc(OC3CN(c4ccncc4)C3)c(-c3ccc(F)cc3)cc21` [Compound 33, 6-(4-fluorophenyl)-5-((1-(pyridin-4-yl)azetidin-3-yl)oxy)isoindolin-1-one], the IC50 was over 10000 nM.

The molecule `[2H]C1([2H])NC(=O)c2cc(-c3ccc(F)cc3)c(OC([2H])([2H])c3cnn(C)c3)cc21` [Compound 34, 6-(4-fluorophenyl)-5-((1-methyl-1H-pyrazol-4-yl)methoxy-d2)isoindolin-1-one-3,3-d2] showed an IC50 of 836 nM.

In turn, `CC(Oc1cc2c(cc1-c1ccc(-c3cccs3)cc1)C(=O)NC2)c1ccncc1` (stereo not drawn) [Compound 36, 5-(1-(pyridin-4-yl)ethoxy)-6-(4-(thiophen-2-yl)phenyl)isoindolin-1-one] registered an IC50 of over 30000 nM.

The molecule `CC(Oc1cc2c(cc1-c1ccc(OC(F)F)cc1F)C(=O)NC2)c1ccncc1` (stereo not drawn) [Compound 37, 6-(4-(difluoromethoxy)-2-fluorophenyl)-5-(1-(pyridin-4-yl)ethoxy)isoindolin-1-one] gave an IC50 of 781 nM.

Turning to `CC(Oc1cc2c(cc1-c1ccc(N3CCOCC3)cc1)C(=O)NC2)c1ccncc1` (stereo not drawn) [Compound 38, 6-(4-morpholinophenyl)-5-(1-(pyridin-4-yl)ethoxy)isoindolin-1-one], the IC50 is over 10000 nM.

`CC(Oc1cc2c(cc1-c1ccc(OC(F)(F)F)cc1)C(=O)NC2)c1ccncc1` (stereo not drawn) [Compound 39, 5-(1-(pyridin-4-yl)ethoxy)-6-(4-(trifluoromethoxy)phenyl)isoindolin-1-one] returned an IC50 of over 10000 nM.

Molecule `CC(Oc1cc2c(cc1-c1ccc(F)nc1)C(=O)NC2)c1ccncc1` (stereo not drawn) [Compound 40, 6-(6-fluoropyridin-3-yl)-5-(1-(pyridin-4-yl)ethoxy)isoindolin-1-one] showed an IC50 of over 10000 nM.

Take `Cn1ccc(COc2cc3c(cc2-c2cc(F)nc(F)c2)C(=O)NC3)n1` [Compound 41, 6-(2,6-difluoropyridin-4-yl)-5-((1-methyl-1H-pyrazol-3-yl)methoxy)isoindolin-1-one]: the IC50 is over 10000 nM.

`Cn1ccc(COc2cc3c(cc2-c2ccc(OC(F)F)cc2F)C(=O)NC3)n1` [Compound 42, 6-(4-(difluoromethoxy)-2-fluorophenyl)-5-((1-methyl-1H-pyrazol-3-yl)methoxy)isoindolin-1-one] returned an IC50 of 393 nM.

`Cn1ccc(COc2cc3c(cc2-c2ccc(OC(F)(F)F)cc2)C(=O)NC3)n1` [Compound 43, 5-((1-methyl-1H-pyrazol-3-yl)methoxy)-6-(4-(trifluoromethoxy)phenyl)isoindolin-1-one] gave an IC50 of 2370 nM.

`Cn1ccc(COc2cc3c(cc2-c2ccc(F)nc2)C(=O)NC3)n1` [Compound 44, 6-(6-fluoropyridin-3-yl)-5-((1-methyl-1H-pyrazol-3-yl)methoxy)isoindolin-1-one] displayed an IC50 of 1840 nM.

For `Cc1nn(C)cc1-c1cc2c(cc1OCc1ccn(C)n1)CNC2=O` [Compound 45, 6-(1,3-dimethyl-1H-pyrazol-4-yl)-5-((1-methyl-1H-pyrazol-3-yl)methoxy)isoindolin-1-one], the IC50 was 3820 nM.

On to `Cn1cc(-c2cc3c(cc2OCc2ccn(C)n2)CNC3=O)cn1` [Compound 46, 5-((1-methyl-1H-pyrazol-3-yl)methoxy)-6-(1-methyl-1H-pyrazol-4-yl)isoindolin-1-one], for which the IC50 was over 10000 nM.

`Cn1ccc(-c2cc3c(cc2OCc2ccn(C)n2)CNC3=O)c1` [Compound 47, 5-((1-methyl-1H-pyrazol-3-yl)methoxy)-6-(1-methyl-1H-pyrrol-3-yl)isoindolin-1-one]: the IC50 is over 10000 nM.

The molecule `Cc1cc(-c2cc3c(cc2OCc2ccn(C)n2)CNC3=O)n(C)n1` [Compound 48, 6-(1,3-dimethyl-1H-pyrazol-5-yl)-5-((1-methyl-1H-pyrazol-3-yl)methoxy)isoindolin-1-one] came in with an IC50 of over 10000 nM.

In the case of `Cc1c(-c2cc3c(cc2OCc2ccn(C)n2)CNC3=O)cc(C#N)n1C` [Compound 49, 1,5-dimethyl-4-(6-((1-methyl-1H-pyrazol-3-yl)methoxy)-3-oxoisoindolin-5-yl)-1H-pyrrole-2-carbonitrile], the IC50 was over 10000 nM.

The molecule `Cn1ccc(COc2cc3c(cc2-c2cnn(C(F)F)c2)C(=O)NC3)n1` [Compound 50, 6-(1-(difluoromethyl)-1H-pyrazol-4-yl)-5-((1-methyl-1H-pyrazol-3-yl)methoxy)isoindolin-1-one] had an IC50 of 2360 nM.

Molecule `Cn1ccc(COc2cc3c(cc2-c2ccc4c(c2)CCO4)C(=O)NC3)n1` [Compound 51, 6-(2,3-dihydrobenzofuran-5-yl)-5-((1-methyl-1H-pyrazol-3-yl)methoxy)isoindolin-1-one] showed an IC50 of 965 nM.

As to `Cn1ccc(COc2cc3c(cc2-c2ccc4ncsc4c2)C(=O)NC3)n1` [Compound 52, 6-(benzo[d]thiazol-6-yl)-5-((1-methyl-1H-pyrazol-3-yl)methoxy)isoindolin-1-one], it took 675 nM to reach half-maximal inhibition (IC50).

On to `Cn1ccc(COc2cc3c(cc2-c2ccc4c(c2)OCO4)C(=O)NC3)n1` [Compound 55, 6-(benzo[d][1,3]dioxol-5-yl)-5-((1-methyl-1H-pyrazol-3-yl)methoxy)isoindolin-1-one], for which the IC50 is 1190 nM and 362 nM.

On to `Cn1ccc(COc2cc3c(cc2-c2ccc4c(c2)OCCO4)C(=O)NC3)n1` [Compound 56, 6-(2,3-dihydrobenzo[b][1,4]dioxin-6-yl)-5-((1-methyl-1H-pyrazol-3-yl)methoxy)isoindolin-1-one], for which the IC50 was 2930 nM and 7540 nM.

Regarding `[2H]C([2H])(Oc1cc2c(cc1-c1cc(F)cc(C#N)c1)C(=O)NC2)c1ccc(C)nc1` [Compound 59, 3-fluoro-5-(6-((6-methylpyridin-3-yl)methoxy-d2)-3-oxoisoindolin-5-yl)benzonitrile], the IC50 is over 10000 nM.

In the case of `Cn1cc(OCc2cc3c(cc2-c2ccc(F)cc2)C(=O)NC3)cn1` [Compound 63, 6-(4-fluorophenyl)-5-(((1-methyl-1H-pyrazol-4-yl)oxy)methyl)isoindolin-1-one], the IC50 was 1190 nM and 1570 nM.

Consider `Cn1ccc(OCc2cc3c(cc2-c2ccc(F)cc2)C(=O)NC3)n1` [Compound 64, 6-(4-fluorophenyl)-5-(((1-methyl-1H-pyrazol-3-yl)oxy)methyl)isoindolin-1-one], for which the IC50 is 2930 nM and 582 nM.

Regarding `O=C1NCc2cc(OC3CN(C(=O)c4cccc(C(F)(F)F)c4)C3)c(-c3ccc(F)cc3)cc21` [Compound 66, 6-(4-fluorophenyl)-5-((1-(3-(trifluoromethyl)benzoyl)azetidin-3-yl)oxy)isoindolin-1-one], the IC50 was 7540 nM and > 30000 nM.

`O=C1NCc2cc(OC3CN(C(=O)c4cccs4)C3)c(-c3ccc(F)cc3)cc21` [Compound 67, 6-(4-fluorophenyl)-5-((1-(thiophene-2-carbonyl)azetidin-3-yl)oxy)isoindolin-1-one] returned an IC50 of over 10000 nM.
